From PubChem BioAssay (NCI)
Values joined by “and” are separate entries in the source; they are usually repeats but may differ in a detail not shown here. Identical values can stand only once.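 Method: 48-hour compound exposure of cells in 96-well plates, five concentrations, linear interpolation of endpoints. GI50: concentration for 50% inhibition of growth. TGI: concentration producing complete growth inhibition.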

Tests used:
Assay in all cases: NCI tumour cell line growth inhibition, 48 h
A498 renal = test system: A498 renal
HOP-62 NSCLC = test system: HOP-62 NSCLC
HT29 colon = test system: HT29 colon
SN12C renal = test system: SN12C renal
SW-620 colon = test system: SW-620 colon
TK-10 renal = test system: TK-10 renal
KM12 colon = test system: KM12 colon
UACC-62 melanoma = test system: UACC-62 melanoma
DU-145 prostate = test system: DU-145 prostate
MCF7 breast = test system: MCF7 breast
MDA-MB-435 = test system: MDA-MB-435

| SMILES | TGI (A498 renal) [µM] | TGI (HOP-62 NSCLC) | TGI (HT29 colon) [µM] | TGI (SN12C renal) [µM] | TGI (SW-620 colon) | GI50 (TK-10 renal) [µM] | TGI (TK-10 renal) | TGI (KM12 colon) [µM] | TGI (UACC-62 melanoma) [µM] | TGI (DU-145 prostate) [µM] | TGI (MCF7 breast) [µM] | TGI (MDA-MB-435) [µM] |
| --- | --- | --- | --- | --- | --- | --- | --- | --- | --- | --- | --- | --- |
| COc1cc2c(c(OC)c1OC)-c1ccc(SC)c(=O)cc1[C@@H](NCc1ccc(F)cc1)CC2 | 0.0265 | 75 µM and 20.6 µM | < 0.0075 | 20.8 | 18.8 µM and > 100 µM | 0.182 | 75 µM and > 100 µM | – | – | – | – | – |
| COC(=O)C(=O)C(C(=O)OC)C(=O)C(=O)Nc1c(C)cccc1C (stereo unspecified) | > 100 | > 100 µM | > 100 | > 100 | > 100 µM | – | > 100 µM | > 100 | > 100 | – | – | – |
| COC(=O)c1ccc2c(c1)CC1(C2)Cc2cc3c(cc2C1)CCC3 | > 100 | > 100 µM | > 100 | – | > 100 µM | – | > 100 µM | – | – | > 100 | > 100 | > 100 |
| CCCCOCCOCCOC1=CC(=O)c2c(O)ccc(O)c2C1=O | – | 3.22 µM | – | 3.22 | 3.06 µM | – | 5.28 µM | 3.3 | 3.64 | 3.1 | 4.01 | 0.356 |
| CCOC(=O)c1c[nH]c(C(=O)OCC)c1-c1cccn1-c1ccccc1 | 86.2 | 50 µM | 89.9 | 69.2 | > 100 µM | – | > 100 µM | 24.6 | 38.9 | > 100 | – | > 100 |
| Nc1nc2c(N)cc(C(F)(F)F)cc2nc1-c1ccccc1 | > 100 | > 100 µM | – | > 100 | > 100 µM | – | > 100 µM | > 100 | > 100 | – | – | – |
| O=C(CNc1ccccn1)Nn1cnc2ccc(S(=O)(=O)Nc3ccccn3)cc2c1=O | – | > 100 µM | > 100 | > 100 | > 100 µM | – | > 100 µM | > 100 | > 100 | > 100 | > 100 | > 100 |
| CNC(=O)c1n[nH]n(C2CCCCC2)c1=S | > 100 | > 100 µM | > 100 | > 100 | > 100 µM | – | – | > 100 | > 100 | > 100 | > 100 | > 100 |
| COc1ccc2[nH]c3c(c2c1)[C@H](c1ccccc1)C[C@@H]1C(=O)N(c2ccccc2)C(=O)[C@H]31 | 49.6 | 48.8 µM | – | 33.3 | 49.7 µM | – | > 100 µM | 43.6 | > 100 | – | – | – |
| CCc1n[nH]c(=O)n1CCCCCCCCn1c(CC)n[nH]c1=O | – | > 100 µM | > 100 | > 100 | > 100 µM | – | > 100 µM | > 100 | > 100 | – | > 100 | > 100 |
| O=C(O)c1nc2ccccc2nc1Nc1ccc(Cl)c(Cl)c1 | 41.6 | 58 µM | – | > 100 | > 100 µM | – | > 100 µM | 54 | – | > 100 | – | > 100 |
| CCOC1=C2N=C(C(CC)c3ccccc3F)N=C2C(=O)c2ccccc21 (stereo unspecified) | – | > 100 µM | > 100 | > 100 | > 100 µM | – | > 100 µM | > 100 | > 100 | – | – | – |
| CC(C)c1cccc(C(C)C)c1NC(=O)C(=O)Cc1nc2ccc([N+](=O)[O-])cc2[nH]c1=O | > 100 | – | > 100 | – | > 100 µM | – | > 100 µM | 28.7 | > 100 | – | – | – |
